# Experimental data: patent US8642094B2, “Synergistic pharmaceutical composition, method of making same and use of same” (Afexa Life Sciences Inc., priority 2008, dated 2014)
# What was measured:
# [1] = target: acyl-CoA: cholesterol acyltransferase (ACAT); conditions: cited from earlier work
# [2] = test system: secretion of apo-B from HepG2 cells; assay: Apo-B secretion from HepG2 cells; type: cell-based, human; conditions: for nature of interaction with ethanol extract of HL: non-linear blending curves, combined total doses 30-250 ug/ml, FIGS. 9-11, 14-35; for nature of interaction with berberine (BBR): non-linear blending, combined total dose 50 ug/ml, FIGS. 36-40
# Experimental: In the Examples to follow, Apo-B secretion experiments were carried out on HepG2 cells. These cells were obtained from the American Type Culture Collection (cat #: ATCC HB-8065). HepG2, a human hepatoblastoma-derived cell line, is one of the most commonly used models to study lipoprotein uptake and metabolism in intact human liver. These cells secrete most of the plasma proteins secreted from human liver cells including apolipoprotein-B [38]. In addition, most of the enzymes involved in intra- and extracellular cholesterol metabolism including LCAT, ACAT, HMG-CoA reductase and Cholesterol 7-α-hydroxylase are expressed in these cells.
# The effects of HL, KDC and hawthorn extracts, when used in isolation as well as in combination, on the secretion of apo-B from human hepatoma cells, Hep-G2 was determined. Water extracts of Coptis chinesis (Huanglian) and Ku Ding Cha (Ilex kudingcha) were developed and tested; results are indicated in FIGS. 1 and 2, respectively. Ethanolic extracts of Coptis chinesis (Huanglian) and ethyl acetate extracts of Ku Ding Cha (Ilex kudingcha) were also developed and hawthorn extract was used for these experiments shown in FIGS. 3-12.
# Additional experiments were subsequently carried out to confirm the synergism between the HL and KDC extracts. Three commonly used approaches including non-linear blending, isobologram and combination index were utilized to determine this interaction.
# Determination of a drugs combination index (CI) provides quantitative information of the nature of drug interaction. It is calculated through the following equation: CI=(CA,X/ICX,A)+(CB,X/ICX,B) CA,X and CB,X, are the concentrations of drug A and drug B used in the combination to achieve x % drug effect. ICX,A and ICX,B are the concentrations for single agents to achieve the same effect. A CI of less than, equal to, and more than 1 indicates synergy, additivity, and antagonism, respectively.
# CYP3A4 = target: T1, CYP3A4 (Homo sapiens, UniProt P08684); conditions: human liver microsomes, 20 μM; cited from earlier work
# T1 construct: incubation of human liver microsomes with BBR; from tissue; host or cells: human liver microsomes
# [3] = oral, 100 mg/day for 2 weeks; cited from earlier work
# 3T3-L1 adipocytes = conditions: cited from earlier work
# CYP2D6 = target: T2, CYP2D6 (Homo sapiens, UniProt P10635); conditions: human liver microsomes, 20 μM; cited from earlier work
# T2 construct: incubation of human liver microsomes with BBR; from tissue; host or cells: human liver microsomes
# Hep G2 cells = conditions: cited from earlier work
# mice = conditions: mouse, in vivo; cited from earlier work
# LDL receptors = conditions: Hep G2 cells; cited from earlier work
# CYP2E1 = target: T3, CYP2E1 (Homo sapiens, UniProt P05181); conditions: human liver microsomes, 20 μM; cited from earlier work
# T3 construct: incubation of human liver microsomes with BBR; from tissue; host or cells: human liver microsomes
# [4] = 1 g/day for 3 months; cited from earlier work
# L929 cells = conditions: cited from earlier work
# [5] = target: nucleoside triphosphate hydrolase (NTPase); conditions: cited from earlier work
# squalene synthase = target: T4, squalene synthase (Homo sapiens, UniProt P37268); conditions: cited from earlier work
# T4 sequence (P37268 1-417): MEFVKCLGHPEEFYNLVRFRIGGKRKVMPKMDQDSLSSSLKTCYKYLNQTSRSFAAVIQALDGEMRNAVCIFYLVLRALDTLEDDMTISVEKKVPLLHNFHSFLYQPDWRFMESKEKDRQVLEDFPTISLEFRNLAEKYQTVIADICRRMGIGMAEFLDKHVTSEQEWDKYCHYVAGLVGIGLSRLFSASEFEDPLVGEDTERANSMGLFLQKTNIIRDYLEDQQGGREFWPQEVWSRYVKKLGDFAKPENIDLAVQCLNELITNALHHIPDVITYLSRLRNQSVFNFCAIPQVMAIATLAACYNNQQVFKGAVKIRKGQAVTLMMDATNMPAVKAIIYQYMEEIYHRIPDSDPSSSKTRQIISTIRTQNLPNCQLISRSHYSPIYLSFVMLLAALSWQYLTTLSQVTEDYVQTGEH
# T3 sequence (P05181 whole entry): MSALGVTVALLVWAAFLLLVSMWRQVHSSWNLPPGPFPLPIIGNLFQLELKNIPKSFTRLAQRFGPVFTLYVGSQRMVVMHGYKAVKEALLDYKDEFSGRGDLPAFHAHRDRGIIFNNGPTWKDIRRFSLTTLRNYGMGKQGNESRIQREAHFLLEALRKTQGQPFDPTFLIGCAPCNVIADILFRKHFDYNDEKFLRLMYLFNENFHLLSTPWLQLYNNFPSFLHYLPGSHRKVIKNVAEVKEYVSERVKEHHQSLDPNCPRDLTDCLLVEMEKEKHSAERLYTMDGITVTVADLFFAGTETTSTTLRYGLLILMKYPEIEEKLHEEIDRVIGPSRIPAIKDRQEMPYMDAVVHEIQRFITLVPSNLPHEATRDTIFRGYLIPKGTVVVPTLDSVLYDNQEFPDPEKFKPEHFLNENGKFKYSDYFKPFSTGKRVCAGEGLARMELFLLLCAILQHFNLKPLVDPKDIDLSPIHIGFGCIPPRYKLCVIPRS
# T1 sequence (P08684 whole entry): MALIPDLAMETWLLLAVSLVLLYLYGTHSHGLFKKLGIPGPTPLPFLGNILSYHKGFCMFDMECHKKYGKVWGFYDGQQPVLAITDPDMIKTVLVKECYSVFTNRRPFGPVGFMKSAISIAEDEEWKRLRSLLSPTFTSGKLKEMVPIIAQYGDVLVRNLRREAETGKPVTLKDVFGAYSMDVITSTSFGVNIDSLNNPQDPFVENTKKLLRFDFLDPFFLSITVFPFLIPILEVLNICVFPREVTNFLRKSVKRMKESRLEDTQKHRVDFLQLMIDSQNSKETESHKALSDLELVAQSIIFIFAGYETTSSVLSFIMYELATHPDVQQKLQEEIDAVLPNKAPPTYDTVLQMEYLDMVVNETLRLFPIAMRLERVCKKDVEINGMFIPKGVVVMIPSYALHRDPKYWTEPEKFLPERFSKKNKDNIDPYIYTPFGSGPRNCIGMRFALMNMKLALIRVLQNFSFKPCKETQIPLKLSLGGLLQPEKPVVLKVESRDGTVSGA
# T2 sequence (P10635 whole entry): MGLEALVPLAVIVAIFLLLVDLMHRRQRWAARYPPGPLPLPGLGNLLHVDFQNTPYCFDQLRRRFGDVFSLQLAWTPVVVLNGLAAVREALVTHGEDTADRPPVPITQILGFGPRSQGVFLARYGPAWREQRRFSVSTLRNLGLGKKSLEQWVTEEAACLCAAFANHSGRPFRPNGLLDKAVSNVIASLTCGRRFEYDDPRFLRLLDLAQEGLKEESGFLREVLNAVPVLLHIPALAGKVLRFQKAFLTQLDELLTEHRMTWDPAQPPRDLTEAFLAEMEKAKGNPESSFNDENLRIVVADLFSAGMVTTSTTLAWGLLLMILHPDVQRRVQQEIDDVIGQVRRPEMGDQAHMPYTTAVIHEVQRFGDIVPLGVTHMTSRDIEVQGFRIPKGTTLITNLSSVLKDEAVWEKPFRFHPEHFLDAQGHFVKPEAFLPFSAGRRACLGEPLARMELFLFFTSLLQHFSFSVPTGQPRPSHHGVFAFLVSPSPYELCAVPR
molecule,measurement,setting,value
"C=C(C)[C@@H]1CC[C@]2(C)CC[C@]3(C)[C@H](CC[C@@H]4[C@@]5(C)CC[C@H](O)C(C)(C)[C@@H]5CC[C@]43C)[C@@H]12 [Lupeol, 3β-Hydroxy-20(29)-lupene]",IC50,[1],48 µM
same,nature of interaction with ethanol extract of HL,[2],interacting with HL
same,nature of interaction with berberine (BBR),[2],synergism
"COc1cc2c(cc1OC)-c1cc3ccc(OC)c(OC)c3c[n+]1CC2 [Palmitine chloride, palmitine chloride]",nature of interaction with berberine (BBR),[2],interact synergistically
COc1ccc2cc3[n+](cc2c1OC)CCc1cc2c(cc1-3)OCO2 [berberine],CYP3A4 activity,CYP3A4,decrease the activities
same,reduction of serum LDL-cholesterol levels,[3],up to 30%
same,reduction of serum total cholesterol levels,[3],up to 30%
same,differentiation of 3T3-L1 adipocytes,3T3-L1 adipocytes,inhibit differentiation
same,CYP2D6 activity,CYP2D6,decrease the activities
same,synthesis of cholesterol and triglyceride in the cells,Hep G2 cells,inhibit the synthesis of cholesterol and triglyceride
same,lethal dose,mice,exceeding 15 mg/Kg
same,expression of LDL receptors,LDL receptors,increases the expression of LDL receptors
same,CYP2E1 activity,CYP2E1,decrease the activities
same,reduction of LDL-cholesterol,[4],25%
same,reduction of serum cholesterol concentrations,[4],29%
same,reduction of triglycerides,[4],35%
same,dose inducing cytotoxicity,L929 cells,greater than 40 μg/ml
Lipedoside B-III,IC50,[1],269 µM
"C=C(C)[C@@H]1CC[C@]2(CO)CC[C@]3(C)[C@H](CC[C@@H]4[C@@]5(C)CC[C@H](O)C(C)(C)[C@@H]5CC[C@]43C)[C@@H]12 [betulin, lup-20[29]-ene-3β,28-diol]",IC50,[1],83 µM
same,nature of interaction with ethanol extract of HL,[2],interacting with HL
same,nature of interaction with berberine (BBR),[2],synergism
"C[C@H]1[C@H](C)CC[C@]2(C(=O)O)CC[C@]3(C)C(=CC[C@@H]4[C@@]5(C)CC[C@H](O)C(C)(C)[C@@H]5CC[C@]43C)[C@H]12 [ursolic acid, 3β-Hydroxy-12-ursen-28-ic acid]",IC50,[1],58.8 µM
same,nature of interaction with ethanol extract of HL,[2],interacting with HL
same,nature of interaction with berberine (BBR),[2],synergism
same,IC50,[5],600 nM
O=C(/C=C/c1ccc(O)c(O)c1)O[C@@H]1C[C@](O)(C(=O)O)C[C@@H](O)[C@H]1O [Chlorogenic acid],IC50,squalene synthase,100 nM
same,nature of interaction with ethanol extract of HL,[2],synergism
same,nature of interaction with berberine (BBR),[2],synergism
